Reference: PubChem BioAssay AID179 (DTP/NCI, 2004)
Active and inactive are the calls of the source.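 The calls were made as follows: active = compounds giving half or more protection of infected cells from virus-caused growth loss, again on retest; inactive = the rest.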 Where a SMILES comes first, the peptide text is derived from it. Bridges are numbered along the chain shown (N, C = ends). [ ]: non-standard residue; d: D form. The star is where a group is joined. Cbz = O=C(OCc1ccccc1)*; Dab = NCC[CH](N)C(=O)O; Bn = c1ccc(C*)cc1

System: CEM cells HIV-1 protection, formazan growth assay
Test: NCI AIDS Antiviral Assay
Settings: for IC50: measured here: growth of uninfected CEM cells
In short: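 Human CEM cells, uninfected and HIV-1-infected, received five drug concentrations, and growth was read by soluble formazan assay. Compounds giving at least 50% protection were retested; reproducible 100% protection defined confirmed active.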

| SMILES | EC50 | IC50 | outcome |
| --- | --- | --- | --- |
| C/C(=C1/N=C(c2cc([N+](=O)[O-])ccc2Cl)N(C2=CC=C(Cl)CC2)C1=O)c1cc2ccccc2oc1=O | > 19.1 µM | > 19.1 µM |  |
| CONc1ncnc2c1ncn2C1OC(CO)CC1F (stereo not drawn) | > 178 µM | > 178 µM |  |
| O=C(OCc1ccccc1)N(Cc1ccccc1)S(=O)(=O)c1ccccc1 | > 200 µM | > 200 µM |  |
| Clc1ccc(CNNCc2cccc(Cl)c2)cc1 | > 200 µM | 102 µM |  |
| CC1=C(c2cc(C(=O)Nc3ccc(Cl)c(Cl)c3)nc(N)n2)Sc2ccccc2N1 | > 81.3 µM | > 81.3 µM |  |
| COCCN1C2=CCCCC2=Nc2c1nc(N)[nH]c2=O |  |  | inactive |
| Cc1cc(O)c2c(c1)C(C1c3cccc(O)c3C(=O)c3c(O)cc(C)cc31)c1cccc(O)c1C2=O (stereo not drawn) | > 2 µM | 0.0912 µM |  |
| C[PH+](C)CC[PH+](C)C.[C-]#[O+].[C-]#[O+].[C-]#[O+].[Fe] | > 200 µM | > 200 µM |  |
| CC1CCCCNC1=S (stereo not drawn) | > 200 µM | > 200 µM |  |
| O=C(COc1ccc(Cl)cc1)N1CCN(C(=O)COc2ccc(Cl)cc2)c2ccccc21 | > 11 µM | > 11 µM |  |
| Cn1c2ccc3cc2c(=S)c2cc(ccc21)OCCOCCOCCOCCOCCO3 | > 200 µM | 61.7 µM |  |
| COc1cc2ccc3c4c(OC)cc(OC)c(OC)c4c(=O)n(C)c3c2cc1OC | > 45.7 µM | 3.63 µM |  |
| O=C(NC(=O)c1cc(-c2ccccc2)n[nH]1)c1ccccc1 | > 200 µM | 123 µM |  |
| C=CC1CC1(CO)COc1cc(Cl)nc(N)n1 (stereo not drawn) | > 200 µM | 141 µM |  |
| CN(C)CCOc1ccc(-c2c(Oc3ccc(Cl)cc3)c(=O)oc3ccccc23)cc1 | > 200 µM | 8.13 µM |  |
| CCC[CH2][Sn]([Cl])([CH2]CCC)[S]C(=S)NCCNC(=S)[S][Sn]([Cl])([CH2]CCC)[CH2]CCC | > 2 µM | 0.102 µM |  |
| Cc1cccc(N=NC(=O)NNc2cccc(C)c2C)c1C | > 200 µM | 70.8 µM |  |
| CCN1C[C@]2(CO)CCC(O)C34[C@@H]5C[C@@H]6C(OC(C)=O)[C@@H]5[C@](OC(C)=O)(C[C@@H]6OC)[C@@H](C(OC)[C@@H]32)[C@H]14 (stereo partly drawn) |  |  | inactive |
| CCCCCCC(C)CCCCCCCCCCC(=O)OCC(COP(=O)([O-])OCC[N+](C)(C)C)OC(=O)CCCCCCCCCCC(C)CCCCCC (stereo not drawn) |  |  | inactive |
| CC(C)NCC(O)c1ccc(OCc2ccccc2)c(OCc2ccccc2)c1-c1ccccc1 (stereo not drawn) | > 200 µM | 3.09 µM |  |
| O=C(OCc1ccccc1C1CSCSC1)c1cc(C(=O)OCc2ccccc2C2CSCSC2)c(C(=O)OCc2ccccc2C2CSCSC2)cc1C(=O)OCc1ccccc1C1CSCSC1 | > 1.82 µM | > 1.82 µM |  |

| SMILES | EC50 | IC50 | outcome |
| --- | --- | --- | --- |
| CCOc1ccc(NC(=O)CC2Sc3ccccc3NC2=O)cc1 (stereo not drawn) | > 11 µM | > 11 µM |  |
| CN(C)c1ccc2c(c1)-c1cc(N(C)C)ccc1C2=CC=C1C(=O)c2ccccc2C1=O | > 17 µM | > 17 µM |  |
| O=C(OCn1ncc2ccc([N+](=O)[O-])cc21)c1ccc(Cl)c(Cl)c1 | > 200 µM | 129 µM |  |
| CN(C)CCC1(c2ccccc2)C=Cc2ccccc21 (stereo not drawn) | > 200 µM | 107 µM |  |
| O=S(=O)(Sc1ccc(Cl)cc1)c1ccc(Cl)cc1 | > 20 µM | 4.27 µM |  |
| O=c1[nH]cnc2c1sc(=S)n2-c1ccccc1 | > 100 µM | 70.8 µM |  |
| Cc1cc(N(CCC#N)CCC#N)ccc1/C=C1/CN(N2C(=O)/C(=C/c3ccc(N(CCC#N)CCC#N)cc3C)N=C2c2ccccc2)C(c2ccccc2)=N1 | > 5.01 µM | > 5.01 µM |  |
| COc1ccc(C(CC(=O)C(C)(C)CN2CCCCC2)SCCS(=O)(=O)O)cc1 (stereo not drawn) | > 200 µM | 13.2 µM |  |
| O=c1oc2ccccc2c2nc3ccccc3cc12 |  |  | inactive |
| c1ccc2c(CC[n+]3cccc(C4OCCO4)c3)c[nH]c2c1 | > 661 µM | 110 µM |  |
| N#CC1=C(S)N(C2OC(CO)C(O)C(O)C2O)C(c2ccccc2)=CC1c1ccccc1 (stereo not drawn) | > 200 µM | 51.3 µM |  |
| O=C(CCc1cc(O)ccc1O)OCCc1ccccc1 | > 20 µM | 10.2 µM |  |
| C=C(CN(C)C)C(=O)c1ccc(OC)cc1 |  |  | inactive |
| CC(C)(Oc1ccc(Cl)cc1)C(=O)N(C(=O)N1CCC(c2ccccc2)CC1)c1ccccc1 | > 200 µM | 7.41 µM |  |
| Cc1cccc(N2C(c3ccccc3)c3ccc(C)cc3NS2=O)c1 (stereo not drawn) | > 257 µM | 151 µM |  |
| CCC1c2c(cc(=O)[nH]c2O)C(=O)N1C (stereo not drawn) | > 447 µM | > 447 µM |  |
| Cn1ccc(C(=O)NCCN(CCNC(=O)c2ccn(C)c(=O)c2O)CCNC(=O)c2ccn(C)c(=O)c2O)c(O)c1=O | > 200 µM | > 200 µM |  |
| COC(=O)c1ccccc1C1CN=NC12Cc1c(C)cccc1C2=O (stereo not drawn) | > 200 µM | 151 µM |  |
| Cc1ccc(C(=O)Nc2ccc(S(=O)(=O)[O-])c3cc(S(=O)(=O)[O-])cc(S(=O)(=O)[O-])c23)cc1NC(=O)c1cccc(NC(=O)Nc2cccc(C(=O)Nc3cc(C(=O)Nc4ccc(S(=O)(=O)[O-])c5cc(S(=O)(=O)[O-])cc(S(=O)(=O)[O-])c45)ccc3C)c2)c1.[Ga] | > 759 µM | 42.7 µM |  |
| O=C(NC(Nc1ccc(F)c(Cl)c1)(C(F)(F)F)C(F)(F)F)C(C(F)(F)F)C(F)(F)F | > 200 µM |  |  |
| Cc1coc2c1C1OC(=O)C3(C/C=C\C(C)C2)OC13 (stereo not drawn) | > 72.4 µM | > 72.4 µM |  |

| SMILES | EC50 | IC50 | outcome |
| --- | --- | --- | --- |
| CC(=O)CCC(=O)C(=[N+]=[N-])S(=O)(=O)c1ccccc1 | > 891 µM | 151 µM |  |
| CC(=O)NC1=CC(=O)c2cc(C)cc(O)c2C1=O | > 200 µM | 5.01 µM |  |
| O=C1CCC(NC(=O)c2ccccc2)C(=O)N1 (stereo not drawn) | > 200 µM | > 200 µM |  |
| Cc1cc2cc3c(=O)[nH]c(=O)cc-3n(CC(O)C(O)C(O)CO)c2cc1C (stereo not drawn) | > 200 µM | > 200 µM |  |
| COc1ccc(N2C(=O)C3c4[nH]c5ccc(OC)cc5c4C4CCC(C(C)C)CC4C3C2=O)cc1 (stereo not drawn) | > 50.1 µM | > 50.1 µM |  |
| CCN(CC)Cc1c(OC)ccc2[nH]c3c4ccc(Cl)cc4ncc3c12 | > 200 µM | 1.1 µM |  |
| CCOC(=O)C1=C(C)C(C(=O)OC)/C(=C/c2cccc3cccnc23)C1=O (stereo not drawn) | > 200 µM | 10.7 µM |  |
| COc1ccc(C2SCC(=O)N2c2ccc(-c3ccc(-n4c(-c5ccccc5)nc5ccccc5c4=O)cc3)cc2)cc1OC (stereo not drawn) | > 200 µM | 18.2 µM |  |
| O=C(Oc1ccc(N=Cc2ccc3c(c2)OCO3)cc1)Oc1ccc(N=Cc2ccc3c(c2)OCO3)cc1 |  |  | inactive |
| Nc1nc2ncn(CC(O)COC(=O)c3ccccc3)c2c(=O)[nH]1 (stereo not drawn) | > 21.9 µM | > 21.9 µM |  |
| CC(C)CC1NC(=O)C(Cc2ccccc2)NC(=O)C(Cc2ccccc2)NC(=O)C(NC(=O)C(Cc2ccc(OCc3ccccc3)cc2)NC(=O)OCc2ccccc2)CCNC1=O (stereo not drawn) (Cbz-Y(Bn)[Dab]FFL; lactam 2-C; configuration not given here) | > 100 µM | > 100 µM |  |
| COc1cccc(C=C2C(=O)c3ccccc3C2=O)c1 |  |  | inactive |
| CC1C/C(=C\c2ccc(O)c(O)c2)C(=O)/C(=C/c2ccc(O)c(O)c2)C1 (stereo not drawn) | > 200 µM | 10 µM |  |
| CCC1=C(c2cccc(OC(C)=O)c2)C(C)c2ccc(OC(C)=O)cc21 (stereo not drawn) | > 200 µM | 7.41 µM |  |
| CC1(C)OCC2OC3OC(C)(C)OC3C(OS(C)(=O)=O)C2O1 (stereo not drawn) | > 200 µM | > 200 µM |  |
| O=C1c2ccccc2C(=O)N1N1C(=O)C2C3CCC(O3)C2C1=O (stereo not drawn) | > 200 µM | 95.5 µM |  |
| CCCc1cc(=O)oc2c3c(c4c(c12)OC(C)(C)C=C4)O[C@H](C)[C@@H](C)[C@H]3O[Si](C)(C)C(C)(C)C | > 200 µM | > 200 µM |  |
| CC(C)(O)[C@H]1OC2CC[C@@]3(C)C(O)(CC[C@H]4Cc5c([nH]c6ccccc56)C43C)C2=CC1=O (stereo partly drawn) | > 200 µM | 13.8 µM |  |
| CN(C)c1ccc(Cc2cc(C(C)(C)C)cc(C(C)(C)C)c2O)cc1 |  |  | inactive |
| CN1C(=O)C2(C)SSC1(C)C(=O)N2C | > 200 µM | 12 µM |  |
| CN(C)C(=O)/N=N/C(=O)N(C)C | > 89.1 µM | 67.6 µM |  |

| SMILES | EC50 | IC50 | outcome |
| --- | --- | --- | --- |
| C1CN1c1nc(N2CC2)nc(N2CC2)n1 | > 91.2 µM | 1.05 µM |  |
| COc1ccc2c(c1)c(=O)c(C(=O)O)cn2CCCOc1ccc([N+](=O)[O-])cc1 |  |  | inactive |
| CCOC(=O)C(=C=C=C(c1ccccc1)c1ccccc1)C(=O)OCC |  |  | inactive |
| Cc1cc(N)ccc1N=Nc1ccc(S(=O)(=O)CCOS(=O)(=O)O)cc1 | > 2 µM | 0.912 µM |  |
| CC1(C)COC2=C(C1)C(=O)c1ccccc1C2=O | > 200 µM | 0.708 µM |  |
| Cc1c2ccc(Cl)cc2nc2ccc(OCCCCCCNC(=O)[C@@H](N)CCCN=C(N)N)cc12 | > 100 µM | 15.5 µM |  |
| O=C(c1ccccc1)c1nnn(Cc2ccccc2Cn2nnc(C(=O)c3ccccc3)c2C(=O)c2ccccc2)c1C(=O)c1ccccc1 | > 7.94 µM | > 7.94 µM |  |
| O=C1/C(=C/c2ccc(Cl)cc2)CCc2ccccc21 | > 19.5 µM | > 19.5 µM |  |
| O=C1c2ccccc2C(=O)c2c1ccc1c2[nH]c2ccccc21 |  |  | inactive |
| NNC(N)Nc1ccccc1 (stereo not drawn) | > 200 µM | > 200 µM |  |
| CCCCn1c(-c2ccc(Cl)cc2)cs/c1=N\Nc1nc2c(c(=O)n(C)c(=O)n2C)n1C | > 33.1 µM | 11 µM |  |
| COC(=O)C(=O)C(/C=N/C(=S)N=Nc1c(O)[nH]c2ccccc12)=C(\O)c1c(C)[nH]c2ccccc12 | 26.9 µM | 105 µM |  |
| CCOC(C[C@H](O)[C@H]1COC(=S)S1)OCC | 135 µM | > 200 µM |  |
| C1CCC(N=C2N(C3CCCCC3)C(=NC3CCCCC3)N2C2CCCCC2)CC1 | > 9.12 µM | > 9.12 µM |  |
| CCC1(C)CC(=O)NC1=O (stereo not drawn) | > 37.2 µM | > 37.2 µM |  |
| CC(=O)Nc1cc2c3c(c1)CCCN3CCC2 | > 200 µM | 39.8 µM |  |
| N#Cc1c(Cl)c2cccnc2n2c1nc1ccccc12 | > 200 µM | 0.339 µM |  |
| CC(C)=CCc1c(O)cc(O)c2c1OC(c1ccc(O)cc1)C(O)C2=O (stereo not drawn) | > 363 µM | 17.8 µM |  |
| O=C1CCC2(c3ccc(Cl)cc3)Nc3ncccc3N12 (stereo not drawn) | > 126 µM | 97.7 µM |  |
| COc1ccccc1-c1csc(CCC(N)C(=O)O)n1 (stereo not drawn) |  |  | inactive |
